Reference: patent US9476087B2, “Methods and compounds for detecting beta-lactamase activity” (Nanyang Technological University, priority 2008, dated 2016)

Columns and labels:
[1] = test system: β-lactamase producing microorganisms; conditions: Hakimelahi et al. 2005; cited from earlier work
[2] = test system: β-lactam antibiotics resistant E. coli Bl21; test: Nitrocefin colorimetric assay in living bacteria; type: cell-based; conditions: nitrocefin 8 μM
Experimental: (§1) FIG. 22 depicts a colorimetric measurement after mixing nitrocefin with different bacterial suspensions. 1: Nitrocefin solution (8 μM) only; 2: Nitrocefin (8 μM) mixed with wild type E. coli Bl21; 3: Nitrocefin (8 μM) mixed with β-lactam antibiotics resistant E. coli Bl21; 4: Nitrocefin (8 μM) mixed with clinical isolate K. pneumoniae (ATCC 700603) strains. […] There was no color difference between the Bla-encoded E. coli Bl21 and the K. pneumoniae strains.
(§2) Bacterial cells (˜10^8 cfu/mL) were suspended in 1 ml of PBS buffer (pH 7.4) which contained substrates under the room temperature. Nitrocefin solution (from Merck) was incubated with bacteria for further enzyme interactions. The final concentration was maintained at 8 μM, which was the same as the gold nanoparticles based enzymatic assay. After 20 mins interaction and followed by centrifugation, supernatant was applied for colorimetric image. The color change with different bacterial suspensions is depicted in FIG. 22.

[3] = test system: clinical isolate K. pneumoniae (ATCC 700603); test: Nitrocefin colorimetric assay in living bacteria; type: cell-based; conditions: nitrocefin 8 μM
Experimental: as §1, §2

wild type E. coli Bl21 = test: Nitrocefin colorimetric assay in living bacteria; type: cell-based; conditions: nitrocefin 8 μM
Experimental: as §1, §2

[4] = test system: CC(=O)NC1C(=O)N2C(C(=O)O)=C(CSc3ccc(CC(=O)NCCOCCOCCN)cc3)CSC12; test: purified protein, by the assay type; conditions: other: 25° C., PBS pH 7.4, β-lactamase 5.0 nM, absorbance change at 650 nm
Experimental: The kinetic measurements were carried out at 25° C. in PBS (phosphate buffered saline) buffer at pH 7.4. The absorbance change at 650 nm was measured by means of a UV spectrophotometer.
The rate of enhancement in absorbance at 650 nm was applied to determine the kinetic properties of enzyme hydrolysis. The values of the kinetic parameters (Km and Kcat) were determined from the double-reciprocal plot of the hydrolysis rate versus substrate concentrations (Lineweaver-Burk plot, based on the Michaelis-Menten model).
The kinetic experiments were carried out at 25° C. in PBS buffer with pH 7.4. The absorbance change at 650 nm was measured using a UV spectrophotometer. […] The rate of enhancement in absorbance at 650 nm was applied to determine the kinetic properties of enzyme hydrolysis. The 9 values of the kinetic parameters (Km and Kcat) were determined from the double-reciprocal plot of the hydrolysis rate versus substrate concentrations (Lineweaver-Burk plot).

COC(=O)C1=C(C(=O)OC(Cl)(Cl)C(Cl)(Cl)OC(=O)C2=C(c3ccccc3)C[C@@H]3[C@@H](NC(=O)Cc4ccccc4)C(=O)N23)N2C(=O)[C@@H](NC(=O)Cc3ccccc3)[C@H]2C1 (relative stereo) [(5R,6S)-rel-7-oxo-6-[(phenylacetyl)amino]-1-azabicyclo[3.2.0]hept-2-ene-2,3-dicarboxylic acid 3-methyl 2-[1,1,2,2-tetrachloro-2-[[[(5R,6R)-7-oxo-3-phenyl-6-[(phenylacetyl)amino]-1-azabicyclo[3.2.0]hept-2-en-2-yl]carbonyl]oxy]ethyl]ester]
activity against β-lactamase producing microorganisms [1]: excellent activity

O=C(Cc1cccs1)N[C@@H]1C(=O)N2C(C(=O)O)=C(/C=C/c3ccc([N+](=O)[O-])cc3[N+](=O)[O-])CS[C@H]12 [nitrocefin]
color change of nitrocefin solution [2]: color change from yellow to pink
color change of nitrocefin solution [3]: color change from yellow to pink
color of nitrocefin solution (wild type E. coli Bl21): pink color was also detected

β-lactamase (Escherichia coli)
Km [4]: 14.1 µM
kcat [4]: 22.7 s⁻¹
